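These data come from cells grown in 96-well plates and exposed to compound for 48 hours at five concentrations. GI50 = concentration required for 50% inhibition of growth.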 Activity calls are given as the source filed them. Rule as the data show it: active = GI50 up to about 1.1 µM and inactive = higher.
Experiments:
Assay in all cases: NCI anticancer screen, dose series, 48 h
[1] = test system: ACHN
[2] = test system: CCRF-CEM
[3] = test system: DU-145
[4] = test system: HL-60
[5] = test system: HOP-62
[6] = test system: K562
[7] = test system: M14
[8] = test system: MDA-MB-231
[9] = test system: MDA-MB-435
[10] = test system: NCI-H460
[11] = test system: OVCAR-5
[12] = test system: PC-3
[13] = test system: RPMI-8226
[14] = test system: SF-268
[15] = test system: SF-539
[16] = test system: SN12C
[17] = test system: SR
[18] = test system: TK-10
[19] = test system: UACC-62
[20] = test system: HOP-92

| SMILES | GI50 [1] | GI50 [2] | GI50 [3] | GI50 [4] | GI50 [5] | GI50 [6] | GI50 [7] | GI50 [8] | GI50 [9] | GI50 [10] | GI50 [11] | GI50 [12] | GI50 [13] | GI50 [14] | GI50 [15] | GI50 [16] | GI50 [17] | GI50 [18] | GI50 [19] | GI50 [20] |
| --- | --- | --- | --- | --- | --- | --- | --- | --- | --- | --- | --- | --- | --- | --- | --- | --- | --- | --- | --- | --- |
| CC(C)(C)[Si](C)(C)OCC1OC(n2cc(F)c(=O)[nH]c2=O)CC1O[Si](C)(C)C(C)(C)C (centres undefined) | 10.1 µM (inactive) | 4.17 µM (inactive) | 3.46 µM (inactive) | 3.78 µM (inactive) | 13.2 µM (inactive) | 4.14 µM (inactive) | 13.3 µM (inactive) | 7.5 µM (inactive) | 12 µM (inactive) | 2.4 µM (inactive) | 17 µM (inactive) | 3.16 µM (inactive) | 3.5 µM (inactive) | 14.5 µM (inactive) | 13.6 µM (inactive) | 2.89 µM (inactive) | 3.1 µM (inactive) | 2.84 µM (inactive) | 5.14 µM (inactive) | – |
| CC(=O)O[C@H]1C[C@@H](OC(C)=O)[C@@](C)(O)[C@@H]2[C@@H](OC(C)=O)[C@@]3(O)[C@H](/C=C(/CCl)[C@H]4O[C@H]4[C@@H](OC(C)=O)[C@@]12C)OC(=O)[C@@H]3C | > 25 µM (inactive) | 18.5 µM (inactive) | > 25 µM (inactive) | – | > 25 µM (inactive) | > 25 µM (inactive) | > 25 µM (inactive) | > 25 µM (inactive) | 19.7 µM (inactive) | > 25 µM (inactive) | > 25 µM (inactive) | > 25 µM (inactive) | 9.89 µM (inactive) | > 25 µM (inactive) | – | > 25 µM (inactive) | – | > 25 µM (inactive) | > 25 µM (inactive) | > 25 µM (inactive) |
| C[C@]12CC/C(=N\O)C=C1CC[C@@H]1[C@@H]2CC[C@]2(C)C(=N/O)/C(=C/c3cccnc3)C[C@@H]12 | 16.8 µM (inactive) | 7.38 µM (inactive) | 21.8 µM (inactive) | 0.338 µM (active) | 18.7 µM (inactive) | 6.98 µM (inactive) | 16.5 µM (inactive) | 17.7 µM (inactive) | 15.9 µM (inactive) | 3.46 µM (inactive) | 24.2 µM (inactive) | 6.95 µM (inactive) | 1.74 µM (inactive) | – | 25.2 µM (inactive) | 12.2 µM (inactive) | – | 15.1 µM (inactive) | 3.3 µM (inactive) | 12.8 µM (inactive) |
| CC1C[C@]2(C)C(=O)N(c3ccccc3)C(=N)[C@@H]2N(C)c2ccccc21 (some centres undefined) | > 100 µM (inactive) | > 100 µM (inactive) | > 100 µM (inactive) | > 100 µM (inactive) | > 100 µM (inactive) | > 100 µM (inactive) | > 100 µM (inactive) | > 100 µM (inactive) | > 100 µM (inactive) | > 100 µM (inactive) | > 100 µM (inactive) | > 100 µM (inactive) | > 100 µM (inactive) | > 100 µM (inactive) | > 100 µM (inactive) | 10.8 µM (inactive) | > 100 µM (inactive) | > 100 µM (inactive) | > 100 µM (inactive) | – |
| C/C(=N/S(=O)(=O)c1ccc(Cl)c(Cl)c1)OCC(C)(C)C | > 100 µM (inactive) | > 100 µM (inactive) | > 100 µM (inactive) | 6.98 µM (inactive) | > 100 µM (inactive) | > 100 µM (inactive) | > 100 µM (inactive) | > 100 µM (inactive) | > 100 µM (inactive) | > 100 µM (inactive) | > 100 µM (inactive) | > 100 µM (inactive) | > 100 µM (inactive) | > 100 µM (inactive) | > 100 µM (inactive) | > 100 µM (inactive) | – | > 100 µM (inactive) | > 100 µM (inactive) | > 100 µM (inactive) |
| Cc1cnccc1/N=N/c1ccc(N(C)C)cc1 | 20.5 µM (inactive) | 37 µM (inactive) | 66.8 µM (inactive) | 47.5 µM (inactive) | 56.5 µM (inactive) | 18.6 µM (inactive) | 41.5 µM (inactive) | 16.3 µM (inactive) | 7.6 µM (inactive) | 25.7 µM (inactive) | 28 µM (inactive) | 26.6 µM (inactive) | 18.5 µM (inactive) | 16.8 µM (inactive) | 19.6 µM (inactive) | 21.9 µM (inactive) | – | 17.2 µM (inactive) | 13.8 µM (inactive) | 9.38 µM (inactive) |
| C=C1C(=O)C([Si](C)(C)C)=C2C=C(C)C3(CC3)C12C (centres undefined) | 61.1 µM (inactive) | 1.19 µM (inactive) | > 100 µM (inactive) | 7.08 µM (inactive) | > 100 µM (inactive) | 19.1 µM (inactive) | 39.8 µM (inactive) | 23 µM (inactive) | 12.9 µM (inactive) | 47.6 µM (inactive) | > 100 µM (inactive) | 3.36 µM (inactive) | 3.88 µM (inactive) | 53.2 µM (inactive) | – | 40.9 µM (inactive) | 0.0279 µM (active) | 67.1 µM (inactive) | 14.7 µM (inactive) | – |

Reference: ChEMBL document CHEMBL1201862, “PubChem BioAssay data set” (2004)
